# In the NIST ThermoML archive (doi:10.1021/acs.jced.5b00298):
# ± gives the expanded uncertainty stated by the source.
# Assay: mn = molality of the nth substance listed, in mol/kg
# Conditions: 298.15 K, 101 kPa, Liquid, Vibrating tube method
mass density (m1 = 0.4002),mass density (m1 = 0.8001),mass density (m1 = 1),Structure (SMILES),mass density (m1 = 0.02),mass density (m1 = 0.1001),mass density (m1 = 0.4001),mass density (m1 = 0.8),mass density (m1 = 1.201),mass density (m1 = 1.602),mass density (m1 = 0.0201),mass density (m1 = 0.1),mass density (m1 = 0.8002),mass density (m1 = 1.2),mass density (m1 = 1.6)
,,,O=[N+]([O-])[O-].[Na+] [sodium nitrate] + O,998.191 ± 0.075 kg/m3,1002.65 ± 0.075 kg/m3,1019.02 ± 0.082 kg/m3,1040.02 ± 0.09 kg/m3,1060.25 ± 0.098 kg/m3,1079.67 ± 0.11 kg/m3,,,,,
,,,[Na+].[O-][Cl+3]([O-])([O-])[O-] [sodium perchlorate] + O,,,1027.27 ± 0.087 kg/m3,,,,998.644 ± 0.078 kg/m3,1004.82 ± 0.079 kg/m3,1055.68 ± 0.098 kg/m3,1083.49 ± 0.11 kg/m3,1111.93 ± 0.12 kg/m3
1045.75 ± 0.1 kg/m3,1090.93 ± 0.12 kg/m3,1112.49 ± 0.13 kg/m3,O=S(=O)([O-])[O-].[Na+].[Na+] [sodium sulfate] + O,,1009.69 ± 0.089 kg/m3,,,,,999.638 ± 0.087 kg/m3,,,1133.41 ± 0.14 kg/m3,
